Converted amounts (≈) assume the structure as drawn.
Assays:
Assay in all cases: Antibacterial activity in vitro, MIC by broth microdilution
[1] = system: S. pneumoniae Stpn_Erm S 4297; type: cell-based, Streptococcus pneumoniae; details: Table 5, Strain ID J: S. pneumoniae Stpn_Erm S 4297
Description: (§1) Representative compounds of the present invention were assayed in vitro for antibacterial activity against the bacterial isolates listed in Table 1 as follows:
(§2) The bacterial isolates listed in Table 1 were cultivated from −70° C. frozen stocks by two consecutive overnight passages (P1, P2) at 35° C. on 5% blood agar (Remel, Lenexa, Kans.). Chocolate agar (Remel) is used for Haemophilus influenzae. H. influenzae and Streptococcus pneumoniae are incubated in 5-10% CO2.
(§3) To determine the amount of solvent to be used to give the desired final concentration, the formula “weight obtained in mg/final concentration in mg/mL” will be used. It will give the amount of solvent in mL needed to be added to give the desired concentration. For example, if 2.5 mg/mL is the desired concentration and the weight of compound is 13.7 mg, then the amount of solvent to be added is 3.94 mL (13.7 mg/2.5 mg/mL=3.94 mLs). Methanol is used as the solvent to dissolve the test compounds. Further dilution of stock is done in sterile, deioinzed water. Drug stocks are kept frozen at −70° C., protected from light.
(§4) MICs are determined by the broth microdilution method in accordance with the NCCLS guidelines. In brief, organism suspensions are adjusted to a 0.5 McFarland standard to yield a final inoculum between 3×10^5 and 7×10^5 CFU/mL. Drug dilutions and inocula are made in sterile, cation adjusted Mueller-Hinton Broth (CAMHB) (Remel) for all but S. pneumoniae [CAMHB with 2-5% lysed horse blood (Remel)] and H. influenzae [Haemophilus Test Medium (Remel)]. An inoculum volume of 100 μl is added to wells containing 100 μl of broth with 2-fold serial dilutions of drug. All inoculated microdilution trays are incubated in ambient air at 35° C. for 18-24 hours, except for S. pneumoniae, and H. influenzae (both at 5-10% CO2).
(§5) Following appropriate incubation, the MIC is determined and the MIC is defined as the lowest concentration of the drug that prevented visible growth.

[2] = system: S. pneumoniae Stpn_Mef S 3427; type: cell-based, Streptococcus pneumoniae; details: Table 5, Strain ID L: S. pneumoniae Stpn_Mef S 3427; unit assumed
Description: as §1, §2, §3, §4, §5

[3] = system: S. pneumoniae Stpn_Mef 5654; type: cell-based, Streptococcus pneumoniae; details: Table 5, Strain ID K: S. pneumoniae Stpn_Mef 5654; unit assumed
Description: as §1, §2, §3, §4, §5

[4] = system: S. pneumoniae Stpn_297-749 Pen R; type: cell-based, Streptococcus pneumoniae; details: Table 5, Strain ID G: S. pneumoniae Stpn_297-749
Description: as §1, §2, §3, §4, §5

[5] = system: S. pneumoniae Stpn_49619; type: cell-based, Streptococcus pneumoniae; details: Table 5, Strain ID F: S. pneumoniae Stpn_49619
Description: as §1, §2, §3, §4, §5

[6] = system: S. pneumoniae Stpn_280-962 Pen S; type: cell-based, Streptococcus pneumoniae; details: Table 5, Strain ID H: S. pneumoniae Stpn_280-962
Description: as §1, §2, §3, §4, §5

[7] = system: S. pneumoniae Stpn_Erm 6849; type: cell-based, Streptococcus pneumoniae; details: Table 5, Strain ID I: S. pneumoniae Stpn_Erm 6849; unit assumed
Description: as §1, §2, §3, §4, §5

[8] = system: H. influenzae Hain_49247; type: cell-based, Haemophilus influenzae; details: Table 5, Strain ID M: H. influenzae Hain_49247; unit assumed
Description: as §1, §2, §3, §4, §5

[9] = system: S. epidermidis Step_14990; type: cell-based; details: Table 5, Strain ID B: S. epidermidis Step_14990; unit assumed
Description: as §1, §2, §3, §4, §5

[10] = system: S. pyogenes Stpy_8668; type: cell-based; details: Table 5, Strain ID E: S. pyogenes Stpy_8668
Description: as §1, §2, §3, §4, §5

[11] = system: E. faecalis Enfa_29212; type: cell-based; details: Table 5, Strain ID D: E. faecalis Enfa_29212; unit assumed
Description: as §1, §2, §3, §4, §5

[12] = system: S. epidermidis Step_f50654 Pen S; type: cell-based; details: Table 5, Strain ID C: S. epidermidis Step_f50654; unit assumed
Description: as §1, §2, §3, §4, §5

[13] = system: S. aureus Stau_29213; type: cell-based; details: Table 5, Strain ID A: S. aureus Stau_29213; unit assumed
Description: as §1, §2, §3, §4, §5

For `CC[C@H]1OC(=O)[C@H](C)C(=O)[C@H](C)[C@@H](OC2O[C@H](C)C[C@H](N(C)C)[C@H]2O)[C@@](C)(OC)C[C@@H](C)C(=O)[C@H](C)[C@H]2N(CCCCn3cnc(-c4cccnc4)c3C)C(=O)O[C@]12CC` (stereo partly drawn) [Example 21, (3aS,4R,7R,9R,10R,11S,13R,15R,15aR)-3a,4-diethyl-11-methoxy-7,9,11,13,15-pentamethyl-1-[4-(5-methyl-4-pyridin-3-yl-1H-imidazol-1-yl)butyl]-2,6,8,14-tetraoxotetradecahydro-2H-oxacyclotetradecino[4,3-d][1,3]oxazol-10-yl 3,4,6-trideoxy-3-(dimethylamino)-D-xylo-hexopyranoside], the MIC ([1]; unit assumed) was 0.1 µg/mL (≈ 0.119 µM), the MIC [2] was 0.1 µg/mL (≈ 0.119 µM) and the MIC [3] was 0.78 µg/mL (≈ 0.928 µM). For the same molecule, the MIC [4] was “≦0.05”, the MIC [5] was “≦0.05” and the MIC [6] was “≦0.05”. For the same molecule, the MIC [7] was 0.2 µg/mL (≈ 0.238 µM), the MIC [8] was 12.5 µg/mL (≈ 14.9 µM) and the MIC [9] was 0.4 µg/mL (≈ 0.476 µM). For the same molecule, the MIC [10] was “≦0.05”, the MIC [11] was 0.1 µg/mL (≈ 0.119 µM) and the MIC [12] was 0.4 µg/mL (≈ 0.476 µM). It also gave an MIC [13] of 0.4 µg/mL (≈ 0.476 µM).
`CC[C@H]1OC(=O)[C@@](C)(F)C(=O)[C@H](C)[C@@H](OC2O[C@H](C)C[C@H](N(C)C)[C@H]2O)[C@@](C)(OC)C[C@@H](C)C(=O)[C@H](C)[C@H]2N(CCCCn3cnc(-c4ccc(C)nc4)c3)C(=O)O[C@]12CC` (stereo partly drawn) [Example 30, (3aS,4R,7S,9R,10R,11S,13R,15R,15aR)-3a,4-diethyl-7-fluoro-11-methoxy-7,9,11,13,15-pentamethyl-1-{4-[4-(6-methylpyridin-3-yl)-1H-imidazol-1-yl]butyl}-2,6,8,14-tetraoxotetradecahydro-2H-oxacyclotetradecino[4,3-d][1,3]oxazol-10-yl 3,4,6-trideoxy-3-(dimethylamino)-D-xylo-hexopyranoside] gave an MIC ([1]; unit assumed) of 0.1 µg/mL (≈ 0.117 µM), an MIC [2] of 0.1 µg/mL (≈ 0.117 µM) and an MIC [3] of 0.78 µg/mL (≈ 0.909 µM). For the same molecule, the MIC [4] was “≦0.05”, the MIC [5] was “≦0.05” and the MIC [6] was “≦0.05”. It also gave an MIC [7] of 0.4 µg/mL (≈ 0.466 µM), an MIC [8] of 6.25 µg/mL (≈ 7.28 µM) and an MIC [9] of 0.2 µg/mL (≈ 0.233 µM). For the same molecule, the MIC [10] was “≦0.05”, the MIC [11] was 0.2 µg/mL (≈ 0.233 µM) and the MIC [12] was 0.4 µg/mL (≈ 0.466 µM). It also gave an MIC [13] of 0.2 µg/mL (≈ 0.233 µM).
For `CC[C@H]1OC(=O)[C@@](C)(F)C(=O)[C@H](C)[C@@H](OC2O[C@H](C)C[C@H](N(C)C)[C@H]2O)[C@@](C)(OC)C[C@@H](C)C(=O)[C@H](C)[C@H]2N(CCCC(C)(C)n3cnc(-c4cccnc4)c3)C(=O)O[C@]12CC` (stereo partly drawn) [Example 32, (3aS,4R,7S,9R,10R,11S,13R,15R,15aR)-3a,4-diethyl-7-fluoro-11-methoxy-7,9,11,13,15-pentamethyl-1-[4-methyl-4-(4-pyridin-3-yl-1H-imidazol-1-yl)pentyl]-2,6,8,14-tetraoxotetradecahydro-2H-oxacyclotetradecino [4,3-d][1,3]oxazol-10-yl 3,4,6-trideoxy-3-(dimethylamino)-D-xylo-hexopyranoside], the MIC [1] was “≦0.05”, the MIC [2] was 0.2 µg/mL (≈ 0.229 µM) and the MIC [3] was 0.78 µg/mL (≈ 0.894 µM). The MIC [4] was “≦0.05”, the MIC [5] was “≦0.05” and the MIC [6] was “≦0.05”. For the same molecule, the MIC [7] was 0.2 µg/mL (≈ 0.229 µM), the MIC [8] was 6.25 µg/mL (≈ 7.17 µM) and the MIC [9] was 0.4 µg/mL (≈ 0.459 µM). For the same molecule, the MIC [10] was “≦0.05”, the MIC [11] was 0.02 µg/mL (≈ 0.0229 µM) and the MIC [12] was 0.4 µg/mL (≈ 0.459 µM). It also gave an MIC [13] of 0.2 µg/mL (≈ 0.229 µM).

— patent US6756359B2, “C12 modified erythromycin macrolides and ketolides having antibacterial activity” (Chiron Corporation, priority 2001, dated 2004)
